Results reported in publication PMC9503535, “Inositol Derivatives with Anti-Inflammatory Activity from Leaves of Solanum capsicoides Allioni” (Molecules, 2022).
Like-named read-outs stand apart in the source and are kept apart here.

Key:
[1] = Cytotoxicity on BV2 cells, CCK8 method; format: cell-based; conditions: mouse, BV2 microglial cells, CCK8, 24 h treatment, 5-200 μM, read-out: Cytotoxic activities IC50
Experimental: The cytotoxicity assay was performed with a modified CCK8 method. First, BV2 microglial cells were cultured with 96-well microplates (10^4 cells/well in […] medium) for 24 h. Then, the cells were treated with different concentrations (5, 10, 30, 50, 100, 200 μM) of compounds. After the cells were incubated for 24 h, added 10 μL CCK8 solution to each well and incubated for 2 h in a 5% CO2 humidifier at 37 ℃. The absorbance was recorded at 450 nm with a microplate reader (BioTek Company, Winooski, VT, USA), repeating three times, and its IC50 value was calculated.

[2] = test system: NO production in LPS-stimulated BV2 cells; assay: Inhibition of NO production in LPS-stimulated BV2 cells (Griess reaction); format: cell-based; conditions: read-out: Inhibitory effects on NO in LPS-induced BV-2, IC50
Experimental: BV2 microglial cells were cultured in DMEM containing 10% fetal bovine serum, 100 IU/mL penicillin, and 100 μg/mL streptomycin at 37 ℃ with 5% CO2. Then, the cells were placed in 96-well microplates and treated with different compounds at 1–8 concentrations (5, 10, 30, 50, 100, 200 μM) for 1 h. Next, the cells were treated with 1 μg/mL LPS for 24 h to detect the NO (nitric oxide) levels in culture supernatants. After the Griess reaction (incubated at 37 ℃ with 5% CO2 for 0.5 h), the absorbance of cells was measured with a microplate reader (BioTek Company, Winooski, VT, USA) at […], repeated three times, and its IC50 value was calculated.

[3] = Mus musculus, BV-2, compound 1 h then 1 μg/mL LPS 24 h

SMILES	IC50 at 24 h [1] [µM]	IC50 [2, 3] [µM]	IC50 ([2]; compound 1 h then 1 μg/mL LPS 24 h) [µM]
CCC(C)C(=O)O[C@@H]1[C@H](OC(C)=O)[C@@H](OC(=O)C(C)CC)[C@H](O)[C@@H](O)[C@@H]1OC(=O)C(C)C (relative stereo) [Compound 1, myoinositol-1,3-(2-methylbutyrate)-2-acetate-4-isobutyryloxy]	> 100	24.3 ± 1.82	
CCC(C)C(=O)O[C@@H]1[C@H](OC(=O)C(C)C)[C@@H](OC(=O)C(C)C)[C@H](O)[C@@H](O)[C@@H]1OC(C)=O (relative stereo) [Compound 2, myoinositol-1,2-isobutyryloxy-3-(2-methylbutyrate)-4-acetate]	> 100	31.7 ± 2.71	
CCC(C)C(=O)O[C@H]1[C@@H](OC(=O)C(C)CC)[C@H](OC(C)=O)[C@@H](O)[C@H](OC(=O)C(C)CC)[C@H]1OC(C)=O (relative stereo) [Compound 3, myoinositol-1,4-acetate-2,3,5-(2-methylbutyrate)]	> 100	> 100	
CCC(C)C(=O)O[C@H]1[C@@H](OC(=O)C(C)CC)[C@H](OC(=O)C(C)CC)[C@@H](O)[C@H](OC(=O)C(C)C)[C@H]1OC(C)=O (relative stereo) [Compound 4, myoinositol-1,2,3-(2-methylbutyrate)-4-acetate-5-isobutyryloxy]	> 100	> 100	
CCC(C)C(=O)O[C@@H]1[C@@H](O)[C@H](O)[C@H](OC(=O)C(C)CC)[C@H](OC(=O)C(C)CC)[C@H]1O (relative stereo) [Compound 5, myoinositol-2,3,6-(2-methylbutyrate)]	> 100	11.2 ± 0.14	
CCC(C)C(=O)O[C@@H]1[C@H](OC(=O)C(C)CC)[C@@H](O)[C@H](O)[C@@H](O)[C@@H]1OC(C)=O (relative stereo) [Compound 6, myoinositol-2,3-(2-methylbutyrate)-4-acetate]	> 100	23.3 ± 0.74	
CCC(C)C(=O)O[C@@H]1[C@H](O)[C@@H](O)[C@H](O)[C@@H](OC(=O)C(C)CC)[C@@H]1OC(C)=O (relative stereo) [Compound 7, myoinositol-1,3-(2-methylbutyrate)-2-acetate]	> 100	14.5 ± 1.22	
CCC(C)C(=O)O[C@@H]1[C@@H](OC(=O)C(C)CC)[C@H](O)[C@@H](O)[C@H](O)[C@@H]1OC(=O)C(C)CC (relative stereo) [Compound 8, myoinositol-2,3,6-(2-methylbutyrate)]	> 100	31 ± 0.92	
CNC(=N)NCCC[C@H](N)C(=O)O [NMMA, reference compound]			1.67 ± 0.24
